Read-outs that look alike come from different tables or passages of the source.
Assay: Pharmacokinetics of intraperitoneal or intravenous injection in CD1 mice
Type: in vivo
Conditions: CD1 mice plasma; for concentration at 0.25 h / concentration at 0.5 h / concentration at 1 h / concentration at 2 h / concentration at 4 h / concentration at 0.033 h / concentration at 0.083 h: male, CD1, mouse, plasma
Method: The pharmacokinetics of exemplary compounds 103, 107, 100, 101, and 102 was examined for intraperitoneal and intravenous administration. The desired serial concentrations of working solutions were achieved by diluting stock solution (1 mg/mL in DMSO) of analyte with methanol. In particular, 20 μL of working solutions (1, 2, 5, 10, 50, 100, 500, 1000, 2000 ng/mL) were added to 20 μL of the blank CD1 mice plasma to achieve calibration standards of 1-2000 ng/mL (1, 2, 5, 10, 50, 100, 500, 1000, 2000 ng/mL) in a total volume of 40 μL. Dose of IV and IP were diluted by 1000 fold and 10000 with methanol, 20 μL of the diluted dose solutions were added to 20 μL of the blank CD1 mice plasma to achieve dose samples. Next, 40 μL standards and 40 μL dose samples were added to 20 μL of IS (100 ng/mL) and 200 μL of acetonitrile for precipitating protein respectively. Then the samples were vortexed for 30 seconds. After centrifugation at 4 degree Celsius, 4000 rpm for 15 minutes, the supernatant was diluted 3 times with water. 10 μL of the diluted supernatant was injected into the LC/MS/MS system for quantitative analysis.
Exemplary compounds 103, 107, 100, 101, and 102 were administered intravenously (5 second injection of 10% HP-b-CD and 40 mM sodium acetate and 40 mM NaCl in water, pH4.5) or intraperitoneally (5% EtOH and 5% Solutol HS15 in D5W(ESD-2)) to 6-8 week old male CD1 mice (3 mice per treatment group for a total of 12 mice) at the time points indicated below in Table 7. The mice had free access to food and water.
Dorsal metatarsal vein samples (30 μL), except that the final sample was acquired via a heart puncture, were taken from the mice at the same the administration time points as shown in Table 7.

[1] = iv, 1 mg/kg, IV 1.0 mg/kg, read-out: Conc. (ng/mL) Mouse 1
[2] = iv, 1 mg/kg, IV 1.0 mg/kg, read-out: Conc. (ng/mL) Mouse 2
[3] = iv, 1 mg/kg, IV 1.0 mg/kg, read-out: Conc. (ng/mL) Mouse 3
[4] = iv, 1 mg/kg, IV 1.0 mg/kg, read-out: Mean

Conc. (ng/mL) Mouse 1 (IP 10 mg/kg, 8 h): BLOQ
Conc. (ng/mL) Mouse 2 (IP 10 mg/kg, 8 h): BLOQ
Conc. (ng/mL) Mouse 3 (IP 10 mg/kg, 8 h): BLOQ
Conc. (ng/mL) Mouse 1 (IP 10 mg/kg, 24 h): BLOQ
Conc. (ng/mL) Mouse 2 (IP 10 mg/kg, 24 h): BLOQ
Conc. (ng/mL) Mouse 3 (IP 10 mg/kg, 24 h): BLOQ
Conc. (ng/mL) Mouse 1 (IV 1.0 mg/kg, 0.25 h): BLOQ
Conc. (ng/mL) Mouse 1 (IV 1.0 mg/kg, 0.5 h): BLOQ
Conc. (ng/mL) Mouse 2 (IV 1.0 mg/kg, 0.5 h): BLOQ
Conc. (ng/mL) Mouse 3 (IV 1.0 mg/kg, 0.5 h): BLOQ
Conc. (ng/mL) Mouse 1 (IV 1.0 mg/kg, 1 h): BLOQ
Conc. (ng/mL) Mouse 2 (IV 1.0 mg/kg, 1 h): BLOQ
Conc. (ng/mL) Mouse 3 (IV 1.0 mg/kg, 1 h): BLOQ
Conc. (ng/mL) Mouse 1 (IV 1.0 mg/kg, 2 h): BLOQ
Conc. (ng/mL) Mouse 2 (IV 1.0 mg/kg, 2 h): BLOQ
Conc. (ng/mL) Mouse 3 (IV 1.0 mg/kg, 2 h): BLOQ
Conc. (ng/mL) Mouse 1 (IV 1.0 mg/kg, 4 h): BLOQ
Conc. (ng/mL) Mouse 2 (IV 1.0 mg/kg, 4 h): BLOQ
Conc. (ng/mL) Mouse 3 (IV 1.0 mg/kg, 4 h): BLOQ
Conc. (ng/mL) Mouse 1 (IV 1.0 mg/kg, 8 h): BLOQ
Conc. (ng/mL) Mouse 2 (IV 1.0 mg/kg, 8 h): BLOQ
Conc. (ng/mL) Mouse 3 (IV 1.0 mg/kg, 8 h): BLOQ
Conc. (ng/mL) Mouse 1 (IV 1.0 mg/kg, 24 h): BLOQ
Conc. (ng/mL) Mouse 2 (IV 1.0 mg/kg, 24 h): BLOQ
Conc. (ng/mL) Mouse 3 (IV 1.0 mg/kg, 24 h): BLOQ
concentration at 0.25 h (ip, 10 mg/kg, IP 10 mg/kg, 0.25 h, read-out: Conc. (ng/mL) Mouse 1): 44.8 ng/mL
concentration at 0.25 h (ip, 10 mg/kg, IP 10 mg/kg, 0.25 h, read-out: Conc. (ng/mL) Mouse 2): 42.6 ng/mL
concentration at 0.25 h (ip, 10 mg/kg, IP 10 mg/kg, 0.25 h, read-out: Conc. (ng/mL) Mouse 3): 111 ng/mL
concentration at 0.25 h (ip, 10 mg/kg, IP 10 mg/kg, 0.25 h, read-out: Mean): 66 ng/mL
concentration at 0.5 h (ip, 10 mg/kg, IP 10 mg/kg, 0.5 h, read-out: Conc. (ng/mL) Mouse 1): 68.4 ng/mL
concentration at 0.5 h (ip, 10 mg/kg, IP 10 mg/kg, 0.5 h, read-out: Conc. (ng/mL) Mouse 2): 41.9 ng/mL
concentration at 0.5 h (ip, 10 mg/kg, IP 10 mg/kg, 0.5 h, read-out: Conc. (ng/mL) Mouse 3): 69.3 ng/mL
concentration at 0.5 h (ip, 10 mg/kg, IP 10 mg/kg, 0.5 h, read-out: Mean): 59.9 ng/mL
concentration at 1 h (ip, 10 mg/kg, IP 10 mg/kg, 1 h, read-out: Conc. (ng/mL) Mouse 1): 64.7 ng/mL
concentration at 1 h (ip, 10 mg/kg, IP 10 mg/kg, 1 h, read-out: Conc. (ng/mL) Mouse 2): 54.2 ng/mL
concentration at 1 h (ip, 10 mg/kg, IP 10 mg/kg, 1 h, read-out: Conc. (ng/mL) Mouse 3): 199 ng/mL
concentration at 1 h (ip, 10 mg/kg, IP 10 mg/kg, 1 h, read-out: Mean): 106 ng/mL
concentration at 2 h (ip, 10 mg/kg, IP 10 mg/kg, 2 h, read-out: Conc. (ng/mL) Mouse 1): 53.2 ng/mL
concentration at 2 h (ip, 10 mg/kg, IP 10 mg/kg, 2 h, read-out: Conc. (ng/mL) Mouse 2): 38.1 ng/mL
concentration at 2 h (ip, 10 mg/kg, IP 10 mg/kg, 2 h, read-out: Conc. (ng/mL) Mouse 3): 59.8 ng/mL
concentration at 2 h (ip, 10 mg/kg, IP 10 mg/kg, 2 h, read-out: Mean): 50.4 ng/mL
concentration at 4 h (ip, 10 mg/kg, IP 10 mg/kg, 4 h, read-out: Conc. (ng/mL) Mouse 1): 4.11 ng/mL
concentration at 4 h (ip, 10 mg/kg, IP 10 mg/kg, 4 h, read-out: Conc. (ng/mL) Mouse 2): 14.9 ng/mL
concentration at 4 h (ip, 10 mg/kg, IP 10 mg/kg, 4 h, read-out: Conc. (ng/mL) Mouse 3): 22.2 ng/mL
concentration at 4 h (ip, 10 mg/kg, IP 10 mg/kg, 4 h, read-out: Mean): 13.7 ng/mL
concentration at 0.033 h [1]: 31.4 ng/mL
concentration at 0.033 h [2]: 31.6 ng/mL
concentration at 0.033 h [3]: 34.3 ng/mL
concentration at 0.033 h [4]: 32.4 ng/mL
concentration at 0.083 h [1]: 8.44 ng/mL
concentration at 0.083 h [2]: 9.65 ng/mL
concentration at 0.083 h [3]: 9.61 ng/mL
concentration at 0.083 h [4]: 9.23 ng/mL
concentration at 0.25 h (iv, 1 mg/kg, IV 1.0 mg/kg, 0.25 h, read-out: Conc. (ng/mL) Mouse 2): 2.25 ng/mL
concentration at 0.25 h (iv, 1 mg/kg, IV 1.0 mg/kg, 0.25 h, read-out: Conc. (ng/mL) Mouse 3): 1.73 ng/mL
concentration at 0.25 h (iv, 1 mg/kg, IV 1.0 mg/kg, 0.25 h, read-out: Mean): 1.99 ng/mL
Compound: CN(c1cccc(CNc2nc(Nc3ccc(OCCCOCCC(=O)NCCOc4cccc5c4C(=O)N(C4CCC(=O)NC4=O)C5=O)cc3)ncc2C(F)(F)F)c1)S(C)(=O)=O (centres unmarked) [Compound 107]

From patent US20200038513A1, “MODULATORS OF FAK PROTEOLYSIS AND ASSOCIATED METHODS OF USE” (ARVINAS OPERATIONS, INC., priority 2018, published 2020)
